Test results reported in patent publication KR20240040049A, “신규 화합물 및 이를 포함하는 염증성 질환과 암에 대한 진단 및 치료에 사용되는 mri 조영제” (주식회사 테라노큐어, priority 2022, dated 2024).
≈ marks a conversion by molar mass, not a printed value. Entries after “also recorded” stand apart in the source; their conditions may differ.

Key:
water solubility at 25℃ = type: physicochemical; settings: for solubility: water
[1] = r1 relaxivity of gadolinium complexes; type: physicochemical; settings: in words; comparison among compounds
[2] = system: LPS-induced inflamed tissue (LPS로 유발된 염증 조직); experiment: H&E staining of LPS-induced inflamed tissue; type: in vivo
NLRP3 = experiment: acute hepatitis animal model (LPS and D-galactosamine): NLRP3; type: in vivo; settings: Gd-galangin i.v. 0.1 mmol/kg, galangin oral
PARP = experiment: acute hepatitis animal model (LPS and D-galactosamine): PARP; type: in vivo; settings: Gd-galangin i.v. 0.1 mmol/kg, galangin oral

| r1 relaxivity [1] | SMILES | solubility in water (water solubility at 25℃) [µM] | solubility in water (words) (water solubility at 25℃) | solubility (water solubility at 25℃) [mg/mL] | intercellular spacing / closeness to normal tissue ([2]; Gd-galangin i.v. versus galangin oral) | histological state compared with LPS alone ([2]; Gd-galangin i.v., galangin oral) | effect on NLRP3 (NLRP3) | effect on PARP (PARP) |
| --- | --- | --- | --- | --- | --- | --- | --- | --- |
|  | O=c1cc(-c2ccccc2)oc2cc(O)ccc12 [7-hydroxyflavone, 7-Hydroxyflavone] | 356 (≈ 84.8 µg/mL) | 거의 물에 녹지 않는 불용성 물질; also recorded: Insoluble | 0.085 (≈ 357 µM) |  |  |  |  |
| 유사한 값 | O=C([O-])CN1CCN(CC(=O)[O-])CCN(C(CO)C(O)CO)CCN(CC(=O)[O-])CC1.[Gd+3] (stereo not drawn) [Gd-BT-DO3A] |  |  |  |  |  |  |  |
| 유사한 값 | O=C([O-])CN1CCN(CC(=O)[O-])CCN(CC(=O)O)CCN(CC(=O)[O-])CC1.[Gd+3] [Gd-DOTA] |  |  |  |  |  |  |  |
|  | O=c1cc(-c2ccccc2)oc2cc(O)cc(O)c12 [chrysin] | 330 (≈ 83.9 µg/mL) | 거의 물에 녹지 않는 불용성 물질; also recorded: Insoluble | 0.084 (≈ 330 µM) |  |  |  |  |
|  | O=c1c(O)c(-c2ccccc2)oc2cc(O)cc(O)c12 [galangin, 3,5,7-트리히드록시플라본] | 2117 (≈ 572 µg/mL) | 거의 물에 녹지 않는 불용성 물질; also recorded: Insoluble | 0.572 (≈ 2120 µM) | 전반적으로 더 벌어져 | 더 나은 상태 | 아무런 효과를 보이지 않았으며 | 아무런 효과를 보이지 않았으며 |
